Results reported in patent publication US6280763A, “Apparatus and method for transdermal delivery of bupropion” (priority 1999, dated 2001).
Where “and” joins values, the source holds several entries; their conditions need not be identical. Equal values may be shown once. Where a name gives a salt, the structure may show the parent alone. Read-outs that look alike come from different tables or passages of the source.

Assays:
[1] = cited from earlier work
[2] = cited from earlier work; for Half-lives (t1/2app): human, in vivo
mice = conditions: metabolites identified in urine; cited from earlier work
[3] = in vivo; cited from earlier work
[4] = rats; cited from earlier work
[5] = humans; cited from earlier work
[6] = dogs; cited from earlier work
[7] = drug content of 80% saturated donor solution in propylene glycol; assay type: physicochemical; conditions: 80% of saturation, saturated at 32° C.
Description: For standardization, saturated solutions of bupropion in propylene glycol were made and 80% of the saturated solution was used as donor solutions. 1,100 mg bupropion has been suspended in 6.0 ml propylene glycol and was vortexed at 90 rpm for 68 hrs at 32° C. in a thermostated shaking cupboard. Controls have been done every 24 hrs to assure that sufficient undissolved drug was in the vessel. Thereafter the suspension was centrifuged (3,000 rpm) for 10 minutes and the clear supernatant was used as saturated solution.
For the diffusion experiments the donor solutions were freshly prepared for each experiment, 550 mg of the bupropion base were suspended in 3.0 ml propylene glycol (PG) and treated as previously described.
A spectroflow 400 pump (Separations, Hendrik Ido Ambacht, The Netherlands) was used to deliver the mobile phase, consisting of acetronitrile 0.1 m KF2 PO4 pH3 20:80 (v/v) with a flow rate of 0.8 ml/min. The mobile phase was degassed with a vacuum pump and chromatography was performed at ambient temperature. Sample amounts of 20 μl were injected with a Gilson model 321 autosampler (Gilson Middleton, Wisconsin USA) with a 20 microliter loop built in onto a inertsil 5 ODS column (Chrompack Nederland BV, Bergen op Zoom, The Netherlands). […] Bupropion base was detected by UV absorption at 310 nm using a spectra 100 spectrophometer (Spectra-Physics, Breda, The Netherlands). […]

[8] = dog, cited from earlier work
albumin = conditions: cited from earlier work
[9] = mouse, cited from earlier work
[10] = rat; cited from earlier work
[11] = rats; cited from earlier work; remark: listed apart in the source
[12] = oral administration; cited from earlier work

## C[C@H](NC(C)(C)C)[C@H](O)c1cccc(Cl)c1 (relative stereo) [EB]
[1]; in vivo, po
  quantifiability after oral dose: not quantifiable
[2]
  Half-lives (t1/2app): 61.4 ± 21.6 h
mice
  activity in mice: have shown activity in mice

## C[C@@H](NC(C)(C)C)[C@H](O)c1cccc(Cl)c1 (relative stereo) [TB]
[1]; in vivo, po
  kinetics relative to MM: parallel that of MM
[3]
  antidepressive effect potency relative to parent medicament: half as parent medicament
[2]
  Half-lives (t1/2app): 38.8 ± 7.6 h
mice
  activity in mice: have shown activity in mice

## C[C@H](NC(C)(C)CO)[C@H](O)c1cccc(Cl)c1 (relative stereo) [erythro amino diol]
[1]; in vivo, po
  quantifiability after oral dose: not quantifiable
mice
  activity in mice: have shown activity in mice

## CC1NC(C)(C)COC1(O)c1cccc(Cl)c1 (centres unmarked) [HB]
[1]; single oral dose of bupropion
  AUC relative to medicament drug: fifteen times
  Cmax relative to medicament drug: three times
[1]; single oral dose
  speed of appearance in the systemic circulation relative to parent: almost as fast
[3]
  antidepressive effect potency relative to parent medicament: half as potent
mice
  activity in mice: have shown activity in mice

## CC(NC(C)(C)C)C(=O)c1cccc(Cl)c1 (centres unmarked) [bupropion hydrochloride]
[4]
  extent of metabolism: highly metabolized
[5]
  extent of metabolism: highly metabolized

## CC(NC(C)(C)C)C(=O)c1cccc(Cl)c1 (centres unmarked) [bupropion]
[6]
  absolute bioavailability: five to twenty
[1]; in vivo
  first pass metabolism: very rapid first pass metabolism
[1]; oral dosage, 100 to 250 mgs
  dose proportionality of drug blood concentration: dose proportional from 100 to 250 mgs
[1]; oral dosage
  biological half life: approximately 14 hours
  biological half life, range: 8-24 hours
  time at which Cmax occurs: approximately 2 hours
[1]; single oral dose
  oral dose kinetics model: best described by a 2 compartment open model with first order absorption
[7]
  drug content of 80% saturated solution: 104 mg/ml PG
[8]; two different dose levels, over one year of treatment
  reductions (induction of own metabolism): 76% and 90%
[8]
  induction of its own metabolism: induces its own metabolism
albumin
  bound to albumin: 80%
[9]; over ten days
  reduction (induction of own metabolism): 58%
[9]
  induction of its own metabolism: induces its own metabolism
[2]; elderly patients, after multiple dosing
  half-life change after multiple dosing: did not change significantly
[10]
  induction of its own metabolism: induces its own metabolism
[11]
  absolute bioavailability: five to twenty

## CC(NC(C)(C)C)C(=O)c1cccc(Cl)c1 (centres unmarked) [carbon 14 bupropion]
[12]
  excreted unchanged: less than 0.5%
  radioactivity recovered in the feces: 10%
  radioactivity recovered in the urine: 87%
